Entries after “also recorded” stand apart in the source; their conditions may differ. Like-named read-outs stand apart in the source and are kept apart here. No end group written: not given here.
Tests used:
[1] = system: Cleaved caspase 3 in colon tissues; experiment: Cleaved caspase 3 immunofluorescence in colon tissues (GI toxicity); assay type: in vivo, mouse; conditions: PDX mice, CPT eq. 3 mg/kg iv twice a week, colon tissue
HCT116 cells [2] = experiment: EdU incorporation assay (DNA synthesis); assay type: cell-based, human
Experimental: (§1) 96-well plates were seeded at 3000 cells per well and exposed to different treatments. 50 μM EdU labeling medium (RiboBio) was added and incubated for 2 h at 37 °C. The cells were then fixed with 4% […] for 10 min. After being washed with PBS, cells were stained with anti-EdU working solution for 30 min and stained with Hoechst33342 for 10 min. Cells were observed using fluorescent microscopy. The percentage of EdU-positive cells was calculated from five random fields in three wells.

LoVo cells = experiment: EdU incorporation assay (DNA synthesis); assay type: cell-based, human
Experimental: as §1

NCM460 cells = experiment: EdU incorporation assay (DNA synthesis); assay type: cell-based, human
Experimental: as §1

intestine and liver = experiment: Organ histology (Supplementary Fig. 6); assay type: in vivo, mouse
[3] = system: patient-derived CRC xenograft; experiment: CRC patient-derived xenograft (PDX) therapeutic evaluation; assay type: in vivo, human xenograft in mice; conditions: HE staining
HCT116 tumors [4] = experiment: HCT116 xenograft therapeutic evaluation; conditions: CPT 5 mg/kg iv twice a week
Experimental: Female BALB/c nude mice (4–6 weeks with weights of 18–22 g) were obtained from Shanghai Super-B&K Laboratory Animal Corp. Ltd. (Shanghai, China) and kept in specific pathogen free, temperature-controlled isolation. All animal studies were conducted in accordance with the principles and procedures outlined in the Guide for the Care and Use of Laboratory Animals and were approved by Ethics committee. To generate the HCT116 and U87 tumor model, about 1 × 10^6 tumor cells were subcutaneously injected into the right front flank of 4 weeks old athymic nude mice.
The HCT116 tumor-bearing mice were randomly divided into 4 groups (n = 7 for each group). […] The tumors were measured by a vernier caliper twice a week. The weights of the mice were recorded. Then, the mice were sacrificed at the 28th day. The tumors were dissected and weighted. The tumor volumes were calculated to evaluate the therapeutic efficacy.

HCT116 cells [5] = experiment: Endocytosis inhibition assay (FITC-P-LPK internalization); assay type: cell-based, human; conditions: 10 µM, 30 min pre-treatment, then FITC-P-LPK 2 h; NC vs CPZ p = 0.0001
Experimental: Fig. 6 P-LPK bound to SLC1A5 and entered CRC cells through endocytosis. a, b Western blotting analysis of SLC1A5 in NCM460, HCT116, LoVo, SW480, HT29 and Colo320HSR cells. After knocking down SLC1A5 in HCT116 and HT29, the binding intensity of FITC-P-LPK to cells was observed by confocal microscopy. Bar, 10 μm. c, d Effects of different endocytosis inhibitors on the internalization of FITC-P-LPK. HCT116 cells were pre-treated with 10 µM chlorpromazine, 50 μM methyl-β-cyclodextrin, 20 µM Amiloride hydrochloride for 30 min at 37 °C. Subsequently, the cells were incubated with FITC-P-LPK for 2 h. Then the fluorescence intensity was observed by confocal microscopy and detected using a multi-well plate reader (n = 5, means ± SD, NC vs CPZ, p = 0.0001; NC vs MβCD, p = 0.9069; NC vs EIPA, p = 0.9812) (****p < 0.0001). Bar, 10 μm. e The competition experiment with SLC1A5 substrates glutamine. FITC-P-LPK was incubated with increasing concentrations (0–32 mM) of glutamine in HCT116 cells at 37 °C for 2 h. The fluorescence intensity was measured in a multi-well plate reader (n = 5, means ± SD).
Chlorpromazine (CPZ), amiloride (AMI), and methyl-β-cyclodextrin (MCD) were purchased from MedChem Express. […] Then the fluorescence intensity was detected using a multi-well plate reader (BioTek synergy4) and observed by confocal laser scanning microscopy.

HCT116 cells [6] = experiment: FITC-peptide binding, confocal fluorescence intensity; assay type: cell-based, human; conditions: FITC labeled, immunofluorescence
Experimental: NCM460, Colo320HSR, HCT116, LoVo, HT29 and SW480 cells were respectively incubated with FITC-labeled P-LPK (Random peptide P-CON) peptides for 2 h at 37 °C and washed with PBS for three times. The cells were fixed with 4% paraformaldehyde for 30 min at room temperature, and then 4,6-diamidino-2-phenylindole (DAPI) was used for nucleic acid stain. A laser scanning confocal microscope was used to visualize the cells. The fluorescence intensity was analyzed using the Image-Pro Plus 6.0 software. For cell localization experiment, 20 μg/ml rhodamine-labeled peptides were incubated with NCM460 and HCT116 for 2 h, and then washed with PBS for three times. After that, the cell membrane was stained with a blue cell membrane probe (Thermo Fisher Scientific, Cat. No. W11263). The binding of Rhodamine-P-LPK to cells and their localization in cells was observed under a confocal microscope.

recombinant SLC1A5 [7] = biological target: T1, recombinant SLC1A5 (Homo sapiens, UniProt Q15758); experiment: Surface plasmon resonance, Biacore T200; assay type: binding; conditions: Biacore T200, CM5 chip, peptide 25–400 μM, 1×PBS with 5% DMSO, 0.05% Tween 20, pH 7.4; read-out: KD (SPR)
T1 sequence (Q15758 1-541): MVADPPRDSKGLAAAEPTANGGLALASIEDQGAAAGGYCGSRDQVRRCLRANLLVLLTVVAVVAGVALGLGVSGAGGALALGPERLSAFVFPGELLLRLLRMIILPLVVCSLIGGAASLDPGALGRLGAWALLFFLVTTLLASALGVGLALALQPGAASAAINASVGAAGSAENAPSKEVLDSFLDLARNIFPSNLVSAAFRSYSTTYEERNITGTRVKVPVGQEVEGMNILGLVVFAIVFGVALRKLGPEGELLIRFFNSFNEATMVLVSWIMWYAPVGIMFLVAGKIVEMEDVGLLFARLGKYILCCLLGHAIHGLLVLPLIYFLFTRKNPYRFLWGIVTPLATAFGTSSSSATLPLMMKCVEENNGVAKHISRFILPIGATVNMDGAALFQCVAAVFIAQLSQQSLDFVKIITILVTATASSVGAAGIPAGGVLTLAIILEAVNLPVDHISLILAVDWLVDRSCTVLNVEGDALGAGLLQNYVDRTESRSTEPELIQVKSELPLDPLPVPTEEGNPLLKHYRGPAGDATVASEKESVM
Experimental: A surface plasmon resonance-based method using the Biacore T200 platform was developed to detect the binding of peptide (25–400 μM) to recombinant SLC1A5. The sensor chip CM5, 1 × PBS (2 mM KH2PO4, 10 mM Na2HPO4, 137 mM NaCl, 2.7 mM KCl) with 5% DMSO, 0.05% Tween 20 buffer (pH 7.4), and the amine coupling kit (which includes EDC, NHS, and ethanolamine reagents) were all obtained from GE Healthcare. The sensor chip CM5 was activated using EDC and NHS reagents, according to the standard procedure for amine coupling. 20 μg/ml SLC1A5 (about 10 μg proteins in 0.5 ml 10 mM Sodium Acetate buffer) was then covalently immobilized to the chip surface CM5 under 10 mM Sodium Acetate (pH 4.5) buffer. The resulting differences in resonance units (RU) were about 4000 RU. After de-activation by ethanolamine and washing with 1×PBS with 5% DMSO, 0.05% Tween 20 buffer (pH 7.4), the prepared sensor chip was applied to Biacore T200 for the binding assay. 1×PBS with 5% DMSO, 0.05% Tween 20 buffer (pH 7.4) was used as running buffer. A one-minute injection of a solution of 10 mM Glycine-HCl, pH 3.0 was used to regenerate the chip surface.

in vivo [8] = experiment: in vivo; parameters: species or system human xenograft in BALB/c nude mice; conditions: female, BALB/c nude, mouse, iv, 3.7 MBq, total radioactivity, T/NT ratio
Experimental: (§2) To obtain ^68Ga, 0.1 M HCl was used to elute a ^68Ge-^68Ga generator. The radioactivity of eluate was monitored. The radioactive elution peak was collected for ^68Ga radiolabeling experiment. An aliquot of 150 μg of compound P-LPK or P-CON was put in a glass vial and dissolved with 0.2 M sodium acetate/acetic acid buffer, pH 3.8. Then ^68GaCl3 tracer was added, and the pH was adjusted to fall in a range of 3.5~4 with 0.1 M NaOH. The solution was stored at room temperature for 0.5 h. The radiochemical purities of ^68Ga-P-LPK and ^68Ga-P-CON were measured with thin-layer chromatography (TLC), using silica gel-impregnated glass fiber stripe (iTLC SG) and 0.25 M sodium citrate/citric acid buffer as mobile phase. ^68GaCl3 was used as a control.
(§3) Each U87 and HCT116 tumor-bearing mouse was injected in a tail vein with 3.7 MBq (100 μCi, 0.1 nmol in 100 μl) of ^68Ga-P-LPK or ^68Ga-P-CON under isoflurane anesthesia (n = 4 per group). For static PET, 5-min scans were acquired at 30 min, 60 min, and 120 min after injection. The maximum radioactivity concentrations within a tumor or an organ were obtained from mean pixel values within the multiple regions of interest (ROI) volume.

HCT116 tumors [9] = experiment: in vivo; parameters: species or system human xenograft in BALB/c nude mice; conditions: for T/NT ratio, unblock: female, BALB/c nude, mouse, iv, 3.7 MBq
Experimental: as §2, §3
(§4) For the blocking experiment, unlabeled P-LPK was first injected into mice (n = 3 per group), and 3.7 MBq ^68Ga-P-LPK was then injected. Static PET images were acquired at 30 min, 60 min and 120 min post-injection.

in vivo [10] = experiment: in vivo; parameters: species or system human xenograft in BALB/c nude mice; conditions: female, BALB/c nude, mouse, iv, 3.7 MBq, total radioactivity, T/NT ratio; remark: listed apart in the source
Experimental: as §2, §3, §4

recombinant SLC1A5 [11] = biological target: T2, recombinant SLC1A5 (UniProt Q15758 1-541); experiment: SPR; Biacore T200; SLC1A5 covalently immobilised by amine coupling on a CM5 chip (about 4000 RU); peptide 25-400 uM as analyte; running buffer 1x PBS with 5% DMSO, 0.05% Tween 20, pH 7.4; conditions: both partners purified
T2 construct: glutamine transporter solute carrier 1 family member 5 (SLC1A5, ASCT2), recombinant protein; additional methods are in the Supplementary Material; also called solute carrier 1 family member 5; ASCT2
T2 sequence: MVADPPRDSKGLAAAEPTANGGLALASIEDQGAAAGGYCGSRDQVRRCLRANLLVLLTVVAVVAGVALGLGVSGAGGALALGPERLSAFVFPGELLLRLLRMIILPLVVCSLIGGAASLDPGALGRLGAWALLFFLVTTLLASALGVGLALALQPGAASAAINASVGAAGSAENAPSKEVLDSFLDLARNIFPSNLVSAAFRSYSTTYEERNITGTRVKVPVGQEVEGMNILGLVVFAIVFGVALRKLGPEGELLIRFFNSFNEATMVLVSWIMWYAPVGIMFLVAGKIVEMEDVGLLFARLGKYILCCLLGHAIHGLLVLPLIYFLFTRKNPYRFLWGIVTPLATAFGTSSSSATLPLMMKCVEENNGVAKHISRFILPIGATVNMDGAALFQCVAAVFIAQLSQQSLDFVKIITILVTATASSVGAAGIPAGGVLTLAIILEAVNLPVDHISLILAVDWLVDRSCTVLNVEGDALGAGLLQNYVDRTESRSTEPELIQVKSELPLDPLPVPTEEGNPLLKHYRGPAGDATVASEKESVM

[12] = relative to DMSO = 1, replicate 1
[13] = relative to DMSO = 1, replicate 2
[14] = relative to DMSO = 1, replicate 3

## CC[C@@]1(O)C(=O)OCc2c1cc1n(c2=O)Cc2cc3ccccc3nc2-1 [CPT, camptothecin]
[1]; CPT vs P-LPK-CPT p = 0.0051, replicate 1
  Quantification of Cleaved caspase 3: 24
[1]; replicate 2
  Quantification of Cleaved caspase 3: 11
[1]; replicate 3
  Quantification of Cleaved caspase 3: 14
[1]; replicate 4
  Quantification of Cleaved caspase 3: 10
[1]; replicate 5
  Quantification of Cleaved caspase 3: 13
HCT116 cells [2]; [12]
  Proportion of cells in the DNA synthesis state: 1.278
HCT116 cells [2]; [13]
  Proportion of cells in the DNA synthesis state: 0.9932
HCT116 cells [2]; [14]
  Proportion of cells in the DNA synthesis state: 0.9243
LoVo cells; [12]
  Proportion of cells in the DNA synthesis state: 0.9805
LoVo cells; [13]
  Proportion of cells in the DNA synthesis state: 0.8341
LoVo cells; [14]
  Proportion of cells in the DNA synthesis state: 1.054
NCM460 cells; [12]
  Proportion of cells in the DNA synthesis state: 1.185
NCM460 cells; [13]
  Proportion of cells in the DNA synthesis state: 1.136
NCM460 cells; [14]
  Proportion of cells in the DNA synthesis state: 0.9381
Intestine and liver
  Damage to intestine and liver: significantly increased
[3]
  Tumor histology (cancer cells in tumor tissue): almost maintained its original morphological features
HCT116 tumors [4]
  Mortality during treatment: More than half of the mice; also recorded: more than half of mice treated with CPT died of side effects
CRC cells; 10 nM (CPT equivalent)
  Antitumor activity / cytotoxicity: no obvious toxicity to CRC cells
CRC cells; 100 nM
  Antitumor activity / cytotoxicity: obvious cytotoxicity effects

## CN(C)CCCN1c2ccccc2Sc2ccc(Cl)cc21 [CPZ, chlorpromazine]
HCT116 cells [5]
  Effect on cellular internalization of FITC-P-LPK: exhibited the highest inhibitory effect; also recorded: remarkably decreased the cellular internalization of FITC-P-LPK

## APATVSSDMSLA [FITC-P-MUT]
HCT116 cells [6]
  Fluorescence intensity of mutant peptide bound to cells: significantly reduced

## DLPSRTSALASG [P-CON]
Recombinant SLC1A5 [7]
  Kd: 126 µM

## LPKTVSSDMSLN [68Ga-P-LPK, metal not drawn]
In vivo [8]
  tissue to tissue ratio at 0.5 h: 1.68
  tissue to tissue ratio at 1 h: 1.47
  tissue to tissue ratio at 2 h: 1.28
HCT116 tumors [9]
  T/NT ratios after blocking: significantly reduced
  T/NT ratios vs 68Ga-P-CON: significantly increased
  Tumor binding after pre-injection with unlabeled P-LPK: dramatically attenuated
HCT116 tumors [9]; 0.5 h
  T/NT ratio, unblock: 0.51
HCT116 tumors [9]; 1 h
  T/NT ratio, unblock: 2.47
In vivo [10]
  tissue to tissue ratio at 0.5 h: 2.85
  tissue to tissue ratio at 1 h: 2.38
  tissue to tissue ratio at 2 h: 1.87
In vivo [10]; block
  tissue to tissue ratio at 0.5 h: 0.41
  tissue to tissue ratio at 1 h: 1.17
  tissue to tissue ratio at 2 h: 0.79
In vivo [10]; unblock
  tissue to tissue ratio at 0.5 h: 0.82
  tissue to tissue ratio at 1 h: 2.91
  tissue to tissue ratio at 2 h: 2.31

B1: P-LPK peptide (peptide)
peptide: LPKTVSSDMSLN
notes: twelve-residue peptide selected from an M13 phage-display peptide library on CRC cells; Unlabelled peptide, analyte in the SPR experiment; source: synthetic peptide
Recombinant SLC1A5 [11]
  Kd: ~1.19 µM

Reference: publication PMC9663589, “Anti-tumor effects of P-LPK-CPT, a peptide-camptothecin conjugate, in colorectal cancer” (Communications Biology, 2022)
